The results in this text go back to publication PMC11274883, “Anticancer Effect of Pt^[sequence], Pt^II5MESS, Pt^II56MESS and Their Platinum(IV)-Dihydroxy Derivatives against Triple-Negative Breast Cancer and Cisplatin-Resistant Colorectal Cancer” (Cancers, 2024).

SMILES strings stand for the structures.

The test system of one experiment is HT29 cells. Briefly: Label-free quantitative proteomics. Format: cell-based, Homo Sapiens. Conditions: HT29, IC50, 72 h; for number of downregulated differentially expressed proteins / number of upregulated differentially expressed proteins: p < 0.05, fold change > 2. As to the method: (§1) The supernatant was then collected into 15 mL tubes, then the cells were washed with PBS and trypsinised. The detached cells were transferred to allocated tubes and centrifuged at 500× g for 5 min at 4 °C. Cell pellet was washed twice with PBS and then resuspended in 300 µL cell lysis buffer (RIPA) for 30 min on ice. Cell extracts were then centrifuged at 12,000× g for 15 min at 4 °C, and the supernatants (containing the proteins) were collected into Lo-Bind Eppendorf. The Bio-Rad protein assay (Bio-Rad, Hercules, CA, USA) was used to assess protein content. For protein extraction and delipidation 100 µL of the cell homogenate was moved to 1.7 mL Lo-Bind Eppendorf tubes and 450 µL methanol was added to the mixture and vortexed. Chloroform (150 µL) was next added and vortexed. Then, water (450 µL) was added to the mixture, vortexed and centrifuged for 5 min at 12,000× g, which formed the protein pellet at the organic/aqueous interface. The layer of chloroform was removed and then 400 µL of methanol was added. The sample was then vortexed and centrifuged at 12,000× g for 15 min. The supernatant was then aspirated and discarded. The pellet was then washed with methanol (400 µL). The supernatant was removed, and the pellets were air-dried overnight. Next, steps were performed for reduction, alkylation, and tryptic digestion of the protein. 0.1% RapiGest (Waters, Milford, MA, USA) in 50 mM aqueous ammonium bicarbonate (20 µL) was added to the air-dried pellet and vortexed for effective suspension. The pellet should completely dissolve. Then, 50 µL of 7 mM DTT in 50 mM aqueous ammonium bicarbonate was added, to give a final concentration of 5 mM DTT. Samples were then heated for 30 min at 60 °C and cooled to room temperature. Iodoacetamide (45 mM) in 50 mM aqueous ammonium bicarbonate was next added to give a concentration of 15 mM. The mixture was allowed to react in the dark for 30 min. Then, 10 ng/µL of Trypsin Gold, Mass spectrometry grade (Promega, NSW, Australia) was added for digestion to occur at room temperature overnight. And 50 µL of 4% (v/v) aqueous trifluoroacetic acid was then added to each tube. Samples were next heated for 45 min at 37 °C to effect decomposition of RapiGest. Samples were then centrifuged at 12,000× g for 10 min at 4 °C. Supernatants were then transferred to total recovery vials and run on a nanoAcquity Ultra-Performance Liquid Chromatography (UPLC) coupled with a Synapt G2-Si instrument (Waters, MA, USA) was used for label-free quantitative protein profiling. Nano-proteomics method is detailed in Method S1. Three independent experiments in triplicates were implemented, while all samples were analysed in a single run with a single injection (1 µL) for each trial. Mass spectrometry (MS) data were processed using Progenesis QI for proteomics (version 4.1, Nonlinear Dynamics, Newcastle upon Tyne, UK), and aligned using UniProt Homo Sapiens reference database IDEP9.6 utilised to cluster and retrieve the initial signature analyses. […] Enrichment studies were performed using gene lists that corresponded to the identified proteins. Overrepresentation analysis was performed based on Gene Ontology (GO) Biological Processes, GO Cellular Components, and GO Molecular Functions using iDEP. Enrichment maps and STRING apps were used to construct pathways networks and explore protein–protein interactions.

The next experiment concerns MDA−MB−231 cells. In words: Label-free quantitative proteomics. Format: cell-based, Homo Sapiens. Conditions: MDA−MB−231, IC50, 72 h; for number of downregulated differentially expressed proteins / number of upregulated differentially expressed proteins: p < 0.05, fold change > 2. As to the method: as §1

For `Cc1cc2cccnc2c2ncccc12.N[C@H]1CCCC[C@@H]1N.O=[N+]([O-])[O-].O=[N+]([O-])[O-].[Pt+2]` [Pt^II5MESS, [Pt(5-methyl-1,10-phenanthroline)(1S,2S-diaminocyclohexane)](NO3)2], in the experiment on HT29 cells, the “DEPs exhibited by the treatment (UpSet plot)” value (shortened to “DEPs exhibited”) is 34, the “number of downregulated differentially expressed proteins” value (“number of downregulated differentially” for short) is on record as 118 and the “number of upregulated differentially expressed proteins” value (“number of upregulated differentially” for short) was found to be 110. In addition, in the experiment with MDA−MB−231 cells, the “DEPs exhibited” value came out at 22, the “number of downregulated differentially” value is listed as 75 and the “number of upregulated differentially” value is reported as 91.
As to `Cc1c(C)c2cccnc2c2ncccc12.N[C@H]1CCCC[C@@H]1N.O=[N+]([O-])[O-].O=[N+]([O-])[O-].[Pt+2]` [Pt^II56MESS, [Pt(5,6-dimethyl-1,10-phenanthroline)(1S,2S-diaminocyclohexane)](NO3)2], in the experiment on HT29 cells, the “DEPs exhibited” value was found to be 225, the “number of downregulated differentially” value is 228 and the “number of upregulated differentially” value amounted to 200. In the experiment with MDA−MB−231 cells, the “DEPs exhibited” value amounted to 165, the “number of downregulated differentially” value worked out at 183 and the “number of upregulated differentially” value stood at 132.
Turning to `Cc1cc2cccnc2c2ncccc12.N[C@H]1CCCC[C@@H]1N.O=[N+]([O-])[O-].O=[N+]([O-])[O-].[OH][Pt+2][OH]` [Pt^IV5MESS(OH)2, [Pt(5-methyl-1,10-phenanthroline)(1S,2S-diaminocyclohexane)(dihydroxy)](NO3)2], the “detected up and down differentially regulated proteins” value in the experiment with HT29 cells amounted to 3. Besides, in the experiment with MDA−MB−231 cells, the “number of downregulated differentially” value worked out at 33 and the “number of upregulated differentially” value was found to be 38.
Taken in the same sequence, the figures for `Cc1c(C)c2cccnc2c2ncccc12.N[C@H]1CCCC[C@@H]1N.O=[N+]([O-])[O-].O=[N+]([O-])[O-].[OH][Pt+2][OH]` [Pt^IV56MESS(OH)2, [Pt(5,6-dimethyl-1,10-phenanthroline)(1S,2S-diaminocyclohexane)(dihydroxy)](NO3)2] were 3, 3 and 8.
For `N[C@H]1CCCC[C@@H]1N.O=[N+]([O-])[O-].O=[N+]([O-])[O-].[OH-].[OH-].[Pt+4].c1cnc2c(c1)ccc1cccnc12` [[Pt(1,10-phenanthroline)(1S,2S-diaminocyclohexane)(dihydroxy)](NO3)2] the same measures were “no detected differentials”, 5 and 9.
As to `N[C@H]1CCCC[C@@H]1N.O=[N+]([O-])[O-].O=[N+]([O-])[O-].[Pt+2].c1cnc2c(c1)ccc1cccnc12` [[Pt(1,10-phenanthroline)(1S,2S-diaminocyclohexane)](NO3)2], the figures for the “number of downregulated differentially” value in the experiment on HT29 cells and in the experiment on MDA−MB−231 cells were 10 and 7, respectively. For the same compound, the “number of upregulated differentially” value in the experiment with HT29 cells came to 9; with MDA−MB−231 cells, 14.
